# From patent publication US9457099B2, “Polyethylene glycol-based dendrons” (RUTGERS, THE STATE UNIVERSITY OF NEW JERSEY, priority 2010, dated 2016)
# How the values were obtained:
# [1] = Dynamic light scattering (DLS) analysis of dendrons; assay type: physicochemical; details: sample concentration 1 mg/mL, 4° C.
# Description: PEGtides were purified on an Alliance reverse-phase high-performance liquid chromatography (RP-HPLC) system (Waters, Mass.) using a Symmetry C18 column (4.6×150 mm, 100 Å, particle size 5 μm). Following mobile phase was used: solvent A, 0.05% aqueous TFA; and solvent B, acetonitrile containing 0.05% TFA. A linear gradient of 95% to 70% of A was applied for 60 min at a flow rate of 1 mL/min. The UV absorptions were monitored at 220 and 250 nm, whereas fluorescence detector was set with excitation and emission wavelengths of 492 and 518 nm, respectively. The dendrons and there derivatives were quantified on a F-7000 fluorescence spectrophotometer (HITACHI, Japan). Mass spectra were acquired on an ABI-MDS SCIEX 4800 matrix-assisted laser desorption/ionisation-time of flight (MALDI-TOF/TOF) mass spectrometer (AB Sciex, Foster City, Calif.). Sample solutions (2 μL) were mixed with matrix solution (20 μL, 20 mg/mL sinapinic acid in 50% aqueous acetonitrile containing 0.1% TFA). This mixture (1 μL) was spotted onto sample holder and dried under a gentle stream of argon at room temperature. All spectra were recorded in positive mode using a linear acquisition method. The dynamic light scattering (DLS) experiments were performed on a Wyatt Dynapro Titan instrument (Wyatt Technology, Santa Barbara, Calif.) with sample concentration of 1 mg/mL. […]
# [2] = system: J774.E murine macrophage cells; assay: Quantitative macrophage uptake of dendrons (5-FAM fluorescence of cell lysate), with mannan inhibition; assay type: cell-based
# Description: (§1) J774.E murine macrophage cells were grown as attached cells in a CO2 water-jacketed incubator (Form a Scientific Inc., Marietta, Ohio) with a humidified 5% CO2 atmosphere at 37° C. The cells were maintained in RPMI-1640 (GIBCO) containing 10% fetal bovine serum (FBS), 100 U/mL penicillin, and 100 μg/mL streptomycin/mL. The cells were seeded two days before experiment to 24-well plates at 0.5×10^5 cells/well for quantitative uptake measurement or to chambered coverglass (LAB-TEK II) at 1×10^5 cell/chamber for confocal microscopy. Cells were incubated with G3.0-Mannose (40 nM) in HBSS at 37° C. for 1 hr. For confocal microscopy, the incubation included the additional 0.16 mg/mL of the general endocytosis marker rhodamine B-labeled dextran (10,000 MW) and the nuclear dye DAPI. For Mannan inhibition studies, cells were pre-incubated with mannan (10 mg/mL) for 1 hr, followed by incubation with G3.0-Mannose, with or without rhodamine B-dextran/DAPI plus 10 mg/mL of mannan. After incubation, the unbound molecules were washed thrice using cold DPBS buffer. PEGtide dendron G3.0 (40 nM) (without mannose) was used as a negative control of mannose receptor-mediated cellular uptake.
# (§2) In quantitative uptake experiments, the washed cells were lysed in wells overnight with 150 μL of 1 N NaOH solution and neutralized the next day with 150 μL of 1 N HCl solution, resulting in 300 μL of cell lysate/well. 250 μL of cell lysate was transferred to a well of a 96-well plate for 5-FAM fluorescence measurement on Tecan GENIOS fluorescent plate reader (Phenix Research Products, Hayward, Calif.). The total cell-associated fluorescence reading was converted into total cell-associated dendron amount using a separately established dendron's fluorescence standard curve. A small fraction of the lysate (about 50 μL, depending on cell density plated) was used to determine total cellular protein/well by Bradford Protein Assay. The total cellular protein/well was used to normalize the dendron amount/well to correct well-to-well variation in cell mass.
# [3] = system: J774.E murine macrophage cells; assay: Confocal microscopy of dendron uptake; assay type: cell-based; details: 40 nM, 1 hr, with rhodamine B-labeled dextran and DAPI
# Description: as §1, with “For Mannan inhibition studies, cells were pre-incubated with mannan (10 mg/mL) for 1 hr, followed by incubation with G3.0-Mannose, with or without rhodamine B-dextran/DAPI plus 10 mg/mL of mannan. After incubation, the unbound molecules were washed thrice using cold DPBS buffer. PEGtide dendron G3.0 (40 nM) (without mannose) was used as a negative control of mannose receptor-mediated cellular uptake.” left out
# as §2, with “A small fraction of the lysate (about 50 μL, depending on cell density plated) was used to determine total cellular protein/well by Bradford Protein Assay. The total cellular protein/well was used to normalize the dendron amount/well to correct well-to-well variation in cell mass.” left out
# [4] = Cell viability MTT assay; assay type: cell-based; details: mouse, J774.E murine macrophage cells; 40 nM in HBSS for 2 hours; mean±standard deviation (n=6); read-out: cell relative viability (MTT)
# Description: (1) Prepared MTT solution in PBS (pH 7.4) with final concentration of 5 mg/mL.
# (2) Cultured J774.E muring macrophage cells with G3.0-Mannose, G3.0 and PAMAM G1.0, with each concentration of 40 nM, in HBSS for 2 hours. 6 replicates were applied. (n=6).
# (3) Aspirated off the culture medium and washed with DPBS for three times for each well.
# (4) 100 μL of HBSS and 25 μL of MIT solution were added to each well. Placed the plate in incubator at 37° C. overnight.
# (5) Aspirated off the HBSS/MTT solution. Added 200 μL of DMSO for dissolving the crystals.
# (6) Transferred to plate reader and measure the absorption at 570 nm.
structure (smiles),measurement,setting,value
O=C(O)CCNC(=O)[C@H](CCCCNC(=O)c1ccc2c(c1)C(=O)OC21c2ccc(O)cc2Oc2cc(O)ccc21)NC(=O)CCOCCOCCOCCOCCOCCOCCNC(=O)[C@H](CCCCNC(=O)CCNC(=O)CCOCCOCCOCCOCCOCCOCCNC(=O)[C@H](CCCCNC(=O)CCNC(=O)CCOCCOCCOCCOCCOCCOCCNC(=O)[C@H](CCCCNC(=O)CCNC(=O)CCOCCOCCOCCOCCOCCOCCNC(=S)Nc1ccc(O[C@H]2O[C@H](CO)[C@@H](O)[C@H](O)[C@@H]2O)cc1)NC(=O)CCNC(=O)CCOCCOCCOCCOCCOCCOCCNC(=S)Nc1ccc(O[C@H]2O[C@H](CO)[C@@H](O)[C@H](O)[C@@H]2O)cc1)NC(=O)CCNC(=O)CCOCCOCCOCCOCCOCCOCCNC(=O)[C@H](CCCCNC(=O)CCNC(=O)CCOCCOCCOCCOCCOCCOCCNC(=S)Nc1ccc(O[C@H]2O[C@H](CO)[C@@H](O)[C@H](O)[C@@H]2O)cc1)NC(=O)CCNC(=O)CCOCCOCCOCCOCCOCCOCCNC(=S)Nc1ccc(O[C@H]2O[C@H](CO)[C@@H](O)[C@H](O)[C@@H]2O)cc1)NC(=O)CCNC(=O)CCOCCOCCOCCOCCOCCOCCNC(=O)[C@H](CCCCNC(=O)CCNC(=O)CCOCCOCCOCCOCCOCCOCCNC(=O)[C@H](CCCCNC(=O)CCNC(=O)CCOCCOCCOCCOCCOCCOCCNC(=S)Nc1ccc(O[C@H]2O[C@H](CO)[C@@H](O)[C@H](O)[C@@H]2O)cc1)NC(=O)CCNC(=O)CCOCCOCCOCCOCCOCCOCCNC(=S)Nc1ccc(O[C@H]2O[C@H](CO)[C@@H](O)[C@H](O)[C@@H]2O)cc1)NC(=O)CCNC(=O)CCOCCOCCOCCOCCOCCOCCNC(=O)[C@H](CCCCNC(=O)CCNC(=O)CCOCCOCCOCCOCCOCCOCCNC(=S)Nc1ccc(O[C@H]2O[C@H](CO)[C@@H](O)[C@H](O)[C@@H]2O)cc1)NC(=O)CCNC(=O)CCOCCOCCOCCOCCOCCOCCNC(=S)Nc1ccc(O[C@H]2O[C@H](CO)[C@@H](O)[C@H](O)[C@@H]2O)cc1 [G3.0-Mannose],hydrodynamic radius (DLS),[1],90.6 nm
same,quantitative uptake in macrophage,"[2]; 40 nM in HBSS at 37° C. for 1 hr, normalized to total cellular protein",699.6 ± 1.8 pmol/µg
same,specificity for mannose receptor (uptake vs non-mannosylated G3.0),"[2]; 40 nM, 1 hr",53 fold
same,uptake in presence of mannan (mannan inhibition),"[2]; 40 nM, 1 hr, cells pre-incubated 1 hr and co-incubated with mannan 10 mg/mL",7.5 ± 4.7 pmol/µg
same,"intracellular green fluorescence (5-FAM), confocal microscopy",[3],prominent only in G3.0-Mannose treated cells
same,"viability at 2 h, 0.04 µM",[4],96.4 ± 7.81%
